Data from patent US20120121540A1 (priority 2007, published 2012).

Assays:
[1] = HCV replicon assay (luciferase reporter, ET cell line); type: cell-based; settings: Hepatitis C virus, HCV replicon luciferase activity in ET cells
Summary of the method: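 ET cells carry a stable luciferase-ubiquitin-neo/NS3-5B subgenomic HCV replicon with adaptive mutations. Compounds (0.1 nM to […], 0.5% DMSO) were added 24 h after plating, and luciferase was read 48-72 h later. EC50 came from 10-point 2-fold dilutions fitted to a Hill equation; TC50 was measured in parallel by WST-1.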

[2] = patients treated at currently recommended doses; cited from earlier work

Row | SMILES | inhibition at 10 µM [1] [%] | patients with significant hemolysis [2]
1 | O=C(c1nc2c(C(F)(F)F)cc(-c3ccoc3)cn2c1Cl)N1CC=C(c2cncnc2)CC1 [Compound 618, [3-chloro-6-(furan-3-yl)-8-(trifluoromethyl)imidazo[1,2-a]pyridin-2-yl][4-(pyrimidin-5-yl)-3,6-dihydropyridin-1(2H)-yl]methanone] | 95.9 | 
2 | O=C(c1nc2c(C(F)(F)F)cc(-c3ccoc3)cn2c1Cl)N1CC=C(C2=CN=CNC2)CC1 [Compound 619, [3-chloro-6-(furan-3-yl)-8-(trifluoromethyl)imidazo[1,2-a]pyridin-2-yl][4-(1,6-dihydropyrimidin-5-yl)-3,6-dihydropyridin-1(2H)-yl]methanone] | 44 | 
3 | Cn1cc(-c2cc(C(F)(F)F)c3nc(C(=O)N4CCC(c5cccc(F)c5)C4)c(Cl)n3c2)cn1 (centres unmarked) [Compound 624, [3-Chloro-6-(1-methyl-1H-pyrazol-4-yl)-8-trifluoromethyl-imidazo[1,2-a]pyridin-2-yl]-[3-(3-fluoro-phenyl)-pyrrolidin-1-yl]-methanone] | 63.9 | 
4 | Cc1n[nH]cc1-c1cc(C(F)(F)F)c2nc(C(=O)N3CCC(c4cccc(F)c4)C3)c(Cl)n2c1 (centres unmarked) [Compound 625, [3-Chloro-6-(3-methyl-1H-pyrazol-4-yl)-8-trifluoromethyl-imidazo[1,2-a]pyridin-2-yl]-[3-(3-fluoro-phenyl)-pyrrolidin-1-yl]-methanone] | 59.8 | 
5 | O=C(c1nc2c(C(F)(F)F)cc(C3=CCNCC3)cn2c1Cl)N1CCC(c2cccc(F)c2)C1 (centres unmarked) [Compound 629, [3-chloro-6-(1,2,3,6-tetrahydropyridin-4-yl)-8-(trifluoromethyl)imidazo[1,2-a]pyridin-2-yl][3-(3-fluorophenyl)pyrrolidin-1-yl]methanone] | 73.3 | 
6 | O=C(c1nc2c(C(F)(F)F)cc(-c3coc(Cl)c3)cn2c1Cl)N1CCC(c2cccc(F)c2)C1 (centres unmarked) [Compound 633, [3-Chloro-6-(5-chloro-furan-3-yl)-8-trifluoromethyl-imidazo[1,2-a]pyridin-2-yl]-[3-(3-fluoro-phenyl)-pyrrolidin-1-yl]-methanone] | 90.2 | 
7 | O=C(c1nc2c(C(F)(F)F)cc(-c3ccoc3)cn2c1Cl)N1C2C=C(c3cscn3)CC1CC2 (centres unmarked) [Compound 634, [3-chloro-6-(furan-3-yl)-8-(trifluoromethyl)imidazo[1,2-a]pyridin-2-yl][3-(1,3-thiazol-4-yl)-8-azabicyclo[3.2.1]oct-2-en-8-yl]methanone] | 86.4 | 
8 | N#Cc1c(F)ccc(F)c1C1=CCN(C(=O)c2nc3c(C(F)(F)F)cc(-c4ccoc4)cn3c2Cl)CC1 [Compound 635, 2-(1-{[3-chloro-6-(furan-3-yl)-8-(trifluoromethyl)imidazo[1,2-a]pyridin-2-yl]carbonyl}-1,2,3,6-tetrahydropyridin-4-yl)-3,6-difluorobenzonitrile] | 95.9 | 
9 | CC(=O)NCc1c(-c2ccoc2)cc(C(F)(F)F)c2nc(C(=O)N3CCC(c4cccc(F)c4)C3)cn12 (centres unmarked) [Compound 637, N-{[2-{[3-(3-fluorophenyl)pyrrolidin-1-yl]carbonyl}-6-(furan-3-yl)-8-(trifluoromethyl)imidazo[1,2-a]pyridin-5-yl]methyl}acetamide] | 60.8 | 
10 | O=C(c1cn2cc(-c3ccoc3)cc(C(F)(F)F)c2n1)N1CCC(c2cccc(F)c2)C1 (centres unmarked) [Compound 638, [3-(3-Fluoro-phenyl)-pyrrolidin-1-yl]-(6-furan-3-yl-8-trifluoromethyl-imidazo[1,2-a]pyridin-2-yl)-methanone] | 98.5 | 
11 | O=C(c1cn2cc(-c3ccccc3)cc(C(F)(F)F)c2n1)N1CCC(c2cccc(F)c2)C1 (centres unmarked) [Compound 639, [3-(3-Fluoro-phenyl)-pyrrolidin-1-yl]-(6-phenyl-8-trifluoromethyl-imidazo[1,2-a]pyridin-2-yl)-methanone] | 71.9 | 
12 | O=C(c1nc2c(C(F)(F)F)cc(-c3ccccc3)cn2c1Br)N1CCC(c2cccc(F)c2)C1 (centres unmarked) [Compound 640, (3-Bromo-6-phenyl-8-trifluoromethyl-imidazo[1,2-a]pyridin-2-yl)-[3-(3-fluoro-phenyl)-pyrrolidin-1-yl]-methanone] | 88.1 | 
13 | O=C(c1nc2c(C(F)(F)F)cc(-c3ccccc3)cn2c1Cl)N1CCC(c2cccc(F)c2)C1 (centres unmarked) [Compound 641, (3-Chloro-6-phenyl-8-trifluoromethyl-imidazo[1,2-a]pyridin-2-yl)-[3-(3-fluoro-phenyl)-pyrrolidin-1-yl]-methanone] | 80.9 | 
14 | CC(=O)c1cc(C(F)(F)F)c2nc(C(=O)N3CCC(c4cccc(F)c4)C3)c(Cl)n2c1 (centres unmarked) [Compound 642, 1-{3-Chloro-2-[3-(3-fluoro-phenyl)-pyrrolidine-1-carbonyl]-8-trifluoromethyl-imidazo[1,2-a]pyridin-6-yl}-ethanone] | 73.8 | 
15 | Nc1nc(-c2cc(C(F)(F)F)c3nc(C(=O)N4CCC(c5cccc(F)c5)C4)c(Cl)n3c2)cs1 (centres unmarked) [Compound 643, 2[6-(2-Amino-thiazol-4-yl)-3-chloro-8-trifluoromethyl-imidazo[1,2-a]pyridin-2-yl]-[3-(3-fluoro-phenyl)-pyrrolidin-1-yl]-methanone] | 74.5 | 
16 | CC(=O)Nc1nc(-c2cc(C(F)(F)F)c3nc(C(=O)N4CCC(c5cccc(F)c5)C4)c(Cl)n3c2)cs1 (centres unmarked) [Compound 644, N-(4-{3-Chloro-2-[3-(3-fluoro-phenyl)-pyrrolidine-1-carbonyl]-8-trifluoromethyl-imidazo[1,2-a]pyridin-6-yl}-thiazol-2-yl)-acetamide] | 59.6 | 
17 | CC(C)c1cc(-c2ccccc2)cn2c(Br)c(C(=O)NCc3cccs3)nc12 [Compound 645, 3-Bromo-8-isopropyl-6-phenyl-imidazo[1,2-a]pyridine-2-carboxylic acid (thiophen-2-ylmethyl)-amide] | 87.1 | 
18 | CC(C)c1cc(-c2ccccc2)cn2cc(C(=O)N3CCC(c4cccc(F)c4)C3)nc12 (centres unmarked) [Compound 646, [3-(3-Fluoro-phenyl)-pyrrolidin-1-yl]-(8-isopropyl-6-phenyl-imidazo[1,2-a]pyridin-2-yl)-methanone] | 42.4 | 
19 | CC(C)c1cc(-c2ccccc2)cn2c(Br)c(C(=O)N3CCC(c4cccc(F)c4)C3)nc12 (centres unmarked) [Compound 647, (3-Bromo-8-isopropyl-6-phenyl-imidazo[1,2-a]pyridin-2-yl)-[3-(3-fluoro-phenyl)-pyrrolidin-1-yl]-methanone] | 58.6 | 
20 | CC(C)Cn1cc(-c2cc(C(F)(F)F)c3nc(C(=O)NCc4cccs4)c(Cl)n3c2)cn1 [Compound 649, 3-Chloro-6-(1-isobutyl-1H-pyrazol-4-yl)-8-trifluoromethyl-imidazo[1,2-a]pyridine-2-carboxylic Acid(thiophen-2-ylmethyl)-amide] | 62.7 | 
21 | O=C(Cc1cn2cc(-c3ccoc3)cc(C(F)(F)F)c2n1)NCc1cccs1 [Compound 650, 2-[6-(furan-3-yl)-8-(trifluoromethyl)imidazo[1,2-a]pyridin-2-yl]-N-(thiophen-2-ylmethyl)acetamide] | 65.7 | 
22 | O=C(Cc1cn2cc(-c3ccoc3)cc(C(F)(F)F)c2n1)N1CCC(c2cccc(F)c2)C1 (centres unmarked) [Compound 652, 1-[3-(3-fluorophenyl)pyrrolidin-1-yl]-2-[6-(furan-3-yl)-8-(trifluoromethyl)imidazo[1,2-a]pyridin-2-yl]ethanone] | 82.1 | 
23 | FC(F)(F)c1cc(-c2ccoc2)cn2cc(-c3cc(-c4ccccc4)no3)nc12 [Compound 654, 6-Furan-3-yl-2-(3-phenyl-isoxazol-5-yl)-8-trifluoromethyl-imidazo[1,2-a]pyridine] | 20.4 | 
24 | FC(F)(F)c1cc(-c2ccco2)cn2c(Cl)c(-c3nc(Cc4ccccc4)no3)nc12 [Compound 656, 2-(3-Benzyl-[1,2,4]oxadiazol-5-yl)-3-chloro-6-furan-2-yl-8-trifluoromethyl-imidazo[1,2-a]pyridine] | 34.1 | 
25 | O=C(c1nc2c(C(F)(F)F)cc(-c3cn[nH]c3)cn2c1I)N1CCC(c2cccc(F)c2)C1 (centres unmarked) [Compound 659] | 93.8 | 
26 | NC(=O)c1ncn([C@@H]2O[C@H](CO)[C@@H](O)[C@H]2O)n1 [Ribavirin, ribavirin] |  | 10-20%
